“And” between values parts separate entries of the source, which are not always exact repeats. Equal entries are not always repeated. Where two headings read alike, the source gives them in different places.

As usually defined, the Vd/F is the apparent distribution volume after extravascular dosing. Broadly, the AUC(0-inf) is total exposure, with the tail of the curve extrapolated. Low values mean low exposure, high ones high exposure. One may read the Cmax as the peak of the concentration-time curve. One may read the AUC(0-t) as the area under the concentration-time curve up to a stated or last time point. Low values mean less exposure, high ones more exposure. As a reminder, the half-life is the time in which the quantity being followed falls by half. As usually defined, the clearance is a measure of how efficiently the substance is removed, as volume per time.

Data set [1] is described as follows: Safety assessment Study 114. Type of data set: in vivo, human. Conditions: Study 114, N = 20.
Data set [2] can be described thus: Safety assessment Study 106 Part A. Conditions: for TEAEs related to individual study drugs: N = 33.
For data set [3] the following is noted: cited from earlier work.
A further data set in a line: clinical. The note with it: human, plasma.
The format of data set [4] is in vivo, human.
A short description of data set [5]: Safety assessment Study 106 Part B. The note with it: N = 24.
In data set [6] the test system is P-glycoprotein transporter. The note with it: ref data on file, G1 Therapeutics; cited from earlier work.
A further data set deals with cytochrome P450 3A4. The note with it: background statement; cited from earlier work.
The conditions of data set [7]: ref data on file, G1 Therapeutics; cited from earlier work.
Data set [8] is classed as in vivo, human. The source holds these as a separate data set.
For data set [9] the following is noted: cited from earlier work. This is another data set of the same source.
Data set [10] is classed as in vivo, human. The source holds these as a separate data set.
Setting [11] is: metformin 1000 mg oral single dose alone, urine, N = 25, geometric mean (CV%).
[12] abbreviates: all resolved without intervention.
[13] abbreviates: trilaciclib vs trilaciclib alone.

Consider `CCC(C)n1ncn(-c2ccc(N3CCN(c4ccc(OCC5COC(Cn6cncn6)(c6ccc(Cl)cc6Cl)O5)cc4)CC3)cc2)c1=O` (centres unmarked) [Itraconazole, itraconazole, reference compound], for which the “TEAEs related to individual study drugs” value in data set [1] was 2 (10.0) n (%).
With `CN(C)C(=N)N=C(N)N` [Metformin, metformin], the “TEAEs related to individual study drugs” value in [2] was 7 (21.2) n (%). In data set [3], the “AUC0–24 as share of AUC0–inf” value was “approximately 95%”. Further, the Vd/F in “clinical” (oral) was 556 L. Besides, in the data set “clinical” (po, 1000 mg), the AUC(0-inf) amounted to 11900 ng·h/mL and the Cmax turned out to be 1650 ng/mL. Besides, the Tmax (metformin 1000 mg oral single dose alone, N = 25, median (range)) was 2.50 (1.50–5.00) h. In addition, under setting [11], the “Ae (total amount of drug excreted in urine)” value was 342 (25.1) mg and the “Fe (percentage of drug excreted in urine)” value is 34.2 (25.1) %. In addition, under “metformin vs metformin alone”, the “geometric mean AUC0–inf higher after coadministration with trilaciclib” value is given as 64.6%, the “geometric mean AUC0–last higher after coadministration with trilaciclib” value was found to be 66.0% and the “geometric mean Cmax higher after coadministration with trilaciclib” value amounted to 79.8%.
With `Cc1ncc2n1-c1ccc(Cl)cc1C(c1ccccc1F)=NC2` [Midazolam, midazolam], the “TEAEs related to individual study drugs” value in data set [2] is given as 16 (48.5) n (%). In data set [4] (human, plasma, oral), this compound registered a Vd/F of 658 L. In data set [4] (human, plasma, po, 5 mg), this compound returned an AUC(0-inf) of 64.6 ng·h/mL, an AUC(0-t) of 62.1 ng·h/mL, a Cmax of 24.4 ng/mL and a Vd/F of 635 L. The compound further gave a half-life in data set [4] (human, plasma, po, 5 mg) of 341 min. Moreover, the CL/F in data set [4] (midazolam 5 mg oral single dose alone, N = 25, geometric mean (CV%)) is 77.4 (34.2) L/h. The Tmax in data set [4] (midazolam 5 mg oral single dose alone, N = 25, median (range)) was 0.50 (0.25–1.50) h. Also, in [4] (midazolam vs midazolam alone), the “Cmax decrease after multiple IV doses of trilaciclib” value was determined as 16.6%, the “geometric mean AUC0–inf higher after coadministration with trilaciclib” value amounted to 4.6% and the “geometric mean AUC0–last higher after coadministration with trilaciclib” value was 4.0%.
Regarding `CO[C@H]1/C=C/O[C@@]2(C)Oc3c(C)c(O)c4c(O)c(c(/C=N/N5CCN(C)CC5)c(O)c4c3C2=O)NC(=O)/C(C)=C\C=C\[C@H](C)[C@H](O)[C@@H](C)[C@@H](O)[C@@H](C)[C@H](OC(C)=O)[C@@H]1C` [Rifampin, rifampin, reference compound], in data set [5], the “TEAEs related to individual study drugs” value is listed as 19 (79.2) n (%).
Regarding `CN1CCN(c2ccc(Nc3ncc4cc5n(c4n3)C3(CCCCC3)CNC5=O)nc2)CC1` [Trilaciclib, trilaciclib], in data set [5], the “TEAEs related to individual study drugs” value is given as 20 (83.3) n (%). The “subjects reporting TEAEs of thrombophlebitis” value in data set [2] (25 subjects enrolled after adjustment of drug administration) turned out to be 24%. In addition, in data set [2], the “TEAEs related to individual study drugs” value was 33 (100) n (%). Besides, in [2] (setting [12]), the “subjects with Grade 3 TEAEs of neutropenia related to trilaciclib” value came out at 5 n and the “subjects with Grade 4 TEAEs of neutropenia related to trilaciclib” value turned out to be 1 n. The “subjects discontinued because of phlebitis in the arm related to trilaciclib administration” value in data set [2] (initial eight subjects (Site 1)) is recorded as “eight”. Moreover, in data set [1], the “TEAEs related to individual study drugs” value is given as 9 (45.0) n (%). Moreover, in [6], the “substrate of the P-glycoprotein transporter” value is on record as “substrate of the P-glycoprotein transporter”. Besides, the “time-dependent inhibitor of cytochrome P450 3A4” value in the data set on cytochrome P450 3A4 was “time-dependent inhibitor of cytochrome P450 3A4”. In addition, the “unbound fraction in plasma” value in data set [7] is “approximately 30%”. In data set [8] (human, plasma, intravenous), the Tmax was 30 min and the clearance was 3520 mL/min. Further, in data set [8] (human, plasma, iv, 240 mg/m2), the AUC(0-inf) is 2700 ng·h/mL, the area under the curve AUC(0-t) was found to be 2670 ng·h/mL, the Cmax was determined as 1600 ng/mL and the Tmax is 25.2 min. Moreover, in data set [8] (human, plasma, iv, 240 mg/m2), the clearance is 2920 mL/min and the half-life is 606 min. Further, in [8] (setting [13]), the “geometric mean AUC0–inf decrease with rifampin” value was 17.3% and 17%; the “geometric mean AUC0–last decrease with rifampin” value is reported as 17.3%; the “geometric mean Cmax reduction with rifampin” value is listed as 19.9%. Further, in data set [9], the clearance was 158 L/h, the “mean terminal half-life (t1/2)” value is “approximately 14 h” and the “parent molecule recovered in the excreta” value was “less than 10%”. Besides, the Tmax in data set [10] (human, plasma, intravenous) stood at 28.8 min. In addition, in data set [10] (human, plasma, iv, 200 mg/m2), the AUC(0-inf) was 3120 ng·h/mL, the AUC(0-t) is 3070 ng·h/mL, the Cmax was 1770 ng/mL and the Tmax came to 24 min. In [10] (human, plasma, iv, 200 mg/m2), this compound showed a clearance of 2120 mL/min and a half-life of 547 min. Also, in data set [10] (setting [13]), the “geometric mean AUC0–inf decrease with itraconazole” value was 14.0% and 13.6%; the “geometric mean AUC0–last decrease with itraconazole” value came out at 13.3%; the “geometric mean Cmax decrease with itraconazole” value came to 28.0%.

Source of the values: PMC9338108 (Clinical Drug Investigation, 2022).
